Patent US20100292214A1, “Compounds with Antiparasitic Activity, Applications thereof to the Treatment of Infectious Diseases Caused by Apicomplexans” (commissariat a l'Energie Atomique, priority 2007, published 2010)

Legend:
[1] = test system: asynchronous 3D7 chloroquine-sensitive P. falciparum infected red blood cells; experiment: Labeled hypoxanthine incorporation assay (in vitro anti-malarial activity); type: cell-based; settings: Plasmodium falciparum, 3D7, Erythrocyte, 3D7 chloroquine-sensitive strain, infected RBC, 48 h contact, [3H]-hypoxanthine incorporation; two independent experiments in duplicates; read-out: IC50 assessed on Plasmodium Falciparum
[2] = test system: Toxoplasma gondii RH-β1 strain; experiment: microbe, parasite or virus in culture; type: cell-based; settings: Toxoplasma gondii, read-out: IC50 assessed on Toxoplama Gondii

SMILES	IC50 [1]	IC50 [2]
O=c1[nH]c2ccccc2n1C1CCN(C(=S)OCCOCc2ccccc2)CC1 [Compound 47, O-2-(benzyloxy)ethyl 4-(1,2-dihydro-2-oxobenzo[d]imidazol-3-yl)piperidine-1-carbothioate]	23200 nM	1130 nM
C[C@@H](COC(=S)N1CCC(n2c(=O)[nH]c3ccccc32)CC1)N(Cc1ccccc1)Cc1ccccc1 [Compound 48, O—(S)-2-(dibenzylamino)propyl 4-(1,2-dihydro-2-oxobenzo[d]imidazol-3-yl)piperidine-1-carbothioate]	2950 nM	1180 nM
O=c1[nH]c2ccccc2n1C1CCN(CCCN(Cc2ccccc2)Cc2ccccc2)CC1 [Compound 49, 1-(1-(3-(dibenzylamino)propyl)piperidin-4-yl)-1H-benzo[d]imidazol-2(3H)-one]	1270 nM	800 nM
C[C@@H](CN1CCC(n2c(=O)[nH]c3ccccc32)CC1)N(Cc1ccccc1)Cc1ccccc1 [Compound 50, 1-(1-((S)-2-(dibenzylamino)propyl)piperidin-4-yl)-1H-benzo[d]imidazol-2(3H)-one]	3340 nM	7000 nM
O=c1[nH]c2ccccc2n1C1CCN(C[C@H](Cc2ccccc2)N(Cc2ccccc2)Cc2ccccc2)CC1 [Compound 51, 1-(1-((S)-2-(dibenzylamino)-3-phenylpropyl)piperidin-4-yl)-1H-benzo[d]imidazol-2(3H)-one]	2110 nM	4000 nM
O=c1[nH]c2ccccc2n1C1CCN(CCN(Cc2ccccc2)Cc2ccccc2)CC1 [Compound 52, 1-(1-(2-(dibenzylamino)ethyl)piperidin-4-yl)-1H-benzo[d]imidazol-2(3H)-one]	1570 nM	2000 nM
O=C(OC[C@H](Cc1ccccc1)N(Cc1ccccc1)Cc1ccccc1)N1CCC(n2c(=O)n(S(=O)(=O)c3ccccc3)c3ccccc32)CC1 [Compound 53, (S)-2-(dibenzylamino)-3-phenylpropyl 4-(1,2-dihydro-3-phenylsulfonyl-2-oxobenzo[d]imidazol-1-yl)piperidine-1-carboxylate]	1940 nM	22000 nM
C[C@@H](COC(=O)N1CCC(n2c(=O)n(S(=O)(=O)c3ccccc3)c3ccccc32)CC1)N(Cc1ccccc1)Cc1ccccc1 [Compound 54, (S)-2-(dibenzylamino)propyl 4-(2-oxo-3-phenylsulfonyl-2,3-dihydro-1H-benzo[d]imidazol-1-yl)piperidine-1-carboxylate]	230 nM	1680 nM
CCCc1ccc(S(=O)(=O)n2c(=O)n(C3CCN(C(=O)OC[C@H](C)N(Cc4ccccc4)Cc4ccccc4)CC3)c3ccccc32)cc1 [Compound 55, (S)-2-(dibenzylamino)propyl 4-(2-oxo-3-(4-propylphenylsulfonyl)-2,3-dihydro-1H-benzo[d]imidazol-1-yl)piperidine-1-carboxylate]	9100 nM	5500 nM
C[C@@H](COC(=O)N1CCC(n2c(=O)n(S(=O)(=O)c3ccc(F)cc3)c3ccccc32)CC1)N(Cc1ccccc1)Cc1ccccc1 [Compound 56, (S)-2-(dibenzylamino)propyl 4-(3-(4-fluorophenylsulfonyl)-2-oxo-2,3-dihydro-1H-benzo[d]imidazol-1-yl)piperidine-1-carboxylate]	330 nM	1500 nM
COc1ccc(S(=O)(=O)n2c(=O)n(C3CCN(C(=O)OC[C@H](C)N(Cc4ccccc4)Cc4ccccc4)CC3)c3ccccc32)cc1 [Compound 57, (S)-2-(dibenzylamino)propyl 4-(3-(4-methoxyphenylsulfonyl)-2-oxo-2,3-dihydro-1H-benzo[d]imidazol-1-yl)piperidine-1-carboxylate]	410 nM	1750 nM
C[C@@H](COC(=O)N1CCC(n2c(=O)n(S(=O)(=O)c3ccc(C(F)(F)F)cc3)c3ccccc32)CC1)N(Cc1ccccc1)Cc1ccccc1 [Compound 58, (S)-2-(dibenzylamino)propyl 4-(2-oxo-3-(4-(trifluoromethyl)phenylsulfonyl)-2,3-dihydro-1H-benzo[d]imidazol-1-yl)piperidine-1-carboxylate]	420 nM	8500 nM
C[C@@H](COC(=O)N1CCC(n2c(=O)n(S(=O)(=O)c3cccs3)c3ccccc32)CC1)N(Cc1ccccc1)Cc1ccccc1 [Compound 59, (S)-2-(dibenzylamino)propyl 4-(2-oxo-3-(thiophen-2-ylsulfonyl)-2,3-dihydro-1H-benzo[d]imidazol-1-yl)piperidine-1-carboxylate]	470 nM	3800 nM
C[C@@H](COC(=O)N1CCC(n2c(=O)n(S(=O)(=O)c3cccc4ccccc34)c3ccccc32)CC1)N(Cc1ccccc1)Cc1ccccc1 [Compound 61, (S)-2-(dibenzylamino)propyl 4-(3-(naphthalen-1-ylsulfonyl)-2-oxo-2,3-dihydro-1H-benzo[d]imidazol-1-yl)piperidine-1-carboxylate]	950 nM	2300 nM
C[C@@H](COC(=O)N1CCC(n2c(=O)n(S(C)(=O)=O)c3ccccc32)CC1)N(Cc1ccccc1)Cc1ccccc1 [Compound 62, (S)-2-(dibenzylamino)propyl 4-(2-oxo-3-methylsulfonyl-2,3-dihydro-1H-benzo[d]imidazol-1-yl)piperidine-1-carboxylate]	1600 nM	1980 nM
CC(=O)Nc1ccc(S(=O)(=O)n2c(=O)n(C3CCN(C(=O)OC[C@H](C)N(Cc4ccccc4)Cc4ccccc4)CC3)c3ccccc32)cc1 [Compound 63, (S)-2-(dibenzylamino)propyl 4-(2-oxo-3-(4-acetamidylphenylsulfonyl)-2,3-dihydro-1H-benzo[d]imidazol-1-yl)piperidine-1-carboxylate]	1540 nM	3000 nM
C[C@@H](COC(=O)N1CCC(n2c(=O)n(C(=O)c3ccccc3)c3ccccc32)CC1)N(Cc1ccccc1)Cc1ccccc1 [Compound 64, (S)-2-(dibenzylamino)propyl 4-(1,2-dihydro-2-oxo-1-(benzoyl)benzo[d]imidazol-3-yl)piperidine-1-carboxylate]	2880 nM	960 nM
CC(=O)n1c(=O)n(C2CCN(C(=O)OC[C@H](C)N(Cc3ccccc3)Cc3ccccc3)CC2)c2ccccc21 [Compound 65, (S)-2-(dibenzylamino)propyl 4-(1-acetyl-1,2-dihydro-2-oxobenzo[d]imidazol-3-yl)piperidine-1-carboxylate]	2940 nM	990 nM
C[C@@H](COC(=O)N1CCC(n2c(=O)n(C(=O)OC(C)(C)C)c3ccccc32)CC1)N(Cc1ccccc1)Cc1ccccc1 [Compound 67, tert-butyl 3-(1-(((S)-2-(dibenzylamino)propoxy)carbonyl)piperidin-4-yl)-2,3-dihydro-2-oxobenzo[d]imidazole-1-carboxylate]	785 nM	2000 nM
Cn1c(=O)n(C2CCN(C(=O)OC[C@H](Cc3ccccc3)N(Cc3ccccc3)Cc3ccccc3)CC2)c2ccccc21 [Compound 68, (S)-2-(dibenzylamino)-3-phenylpropyl 4-(1,2-dihydro-1-methyl-2-oxobenzo[d]imidazol-3-yl)piperidine-1-carboxylate]	452 nM	800 nM
C[C@@H](COC(=O)N1CCC(n2c(=O)n(C)c3ccccc32)CC1)N(Cc1ccccc1)Cc1ccccc1 [Compound 69, (S)-2-(dibenzylamino)propyl 4-(1,2-dihydro-1-methyl-2-oxobenzo[d]imidazol-3-yl)piperidine-1-carboxylate]	1540 nM	200 nM
O=C(OC[C@H](Cc1ccccc1)N(Cc1ccccc1)Cc1ccccc1)N1CCC(n2c(=O)n(Cc3ccccc3)c3ccccc32)CC1 [Compound 70, (S)-2-(dibenzylamino)-3-phenylpropyl 4-(1-benzyl-1,2-dihydro-2-oxobenzo[d]imidazol-3-yl)piperidine-1-carboxylate]	953 nM	3600 nM
C[C@@H](COC(=O)N1CCC(n2c(=O)n(Cc3ccccc3)c3ccccc32)CC1)N(Cc1ccccc1)Cc1ccccc1 [Compound 71, (S)-2-(dibenzylamino)propyl 4-(1-benzyl-1,2-dihydro-2-oxobenzo[d]imidazol-3-yl)piperidine-1-carboxylate]	770 nM	1760 nM
C[C@@H](COC(=O)N1CCC(n2c(=O)n(CC3CCCCC3)c3ccccc32)CC1)N(Cc1ccccc1)Cc1ccccc1 [Compound 72, (S)-2-(dibenzylamino)propyl 4-(1-(cyclohexylmethyl)-1,2-dihydro-2-oxobenzo[d]imidazol-3-yl)piperidine-1-carboxylate]	1030 nM	1570 nM
C[C@@H](COC(=O)N1CCC(n2c(=O)n(CCNC(=O)OC(C)(C)C)c3ccccc32)CC1)N(Cc1ccccc1)Cc1ccccc1 [Compound 73, (S)-2-(dibenzylamino)propyl 4-(3-(2-tert-butyloxycarbonylaminoethyl)-2-oxo-2,3-dihydro-1H-benzo[d]imidazol-1-yl)piperidine-1-carboxylate]	1420 nM	3000 nM
CC(C)(C)OC(=O)NCCn1c(=O)n(C2CCN(C(=O)OC[C@H](Cc3ccccc3)N(Cc3ccccc3)Cc3ccccc3)CC2)c2ccccc21 [Compound 74, (S)-2-(dibenzylamino)-3-phenylpropyl 4-(3-(2-tert-butyloxycarbonylaminoethyl)-2-oxo-2,3-dihydro-1H-benzo[d]imidazol-1-yl)piperidine-1-carboxylate]	384 nM	3200 nM
C[C@@H](COC(=O)N1CCC(n2c(=O)n(-c3ccccc3)c3ccccc32)CC1)N(Cc1ccccc1)Cc1ccccc1 [Compound 75, (S)-2-(dibenzylamino)propyl 4-(1,2-dihydro-2-oxo-1-phenylbenzo[d]imidazol-3-yl)piperidine-1-carboxylate]	2290 nM	3500 nM
O=C(CCCC[C@@H]1SC[C@@H]2NC(=O)N[C@@H]21)NCCn1c(=O)n(C2CCN(C(=O)OC[C@H](Cc3ccccc3)N(Cc3ccccc3)Cc3ccccc3)CC2)c2ccccc21 [Compound 76, (S)-2-(dibenzylamino)-3-phenylpropyl 4-(3-(2 aminoethyl)-2-oxo-2,3-dihydro-1H-benzo[d]imidazol-1-yl)piperidine-1-carboxylate D-biotin amid]	480 nM	2600 nM
